From patent US4372970A, “Benzofuran acetic acid esters and their arthropocidal compositions” (Shell Internationale Research Maatschappij B.V., priority 1979, dated 1983)

Assays:
[1] = tested on: Blattella germanica; assay: Topical activity against Blattella germanica (24 hours, LC50, relative to Resmethrin); type: in vivo; settings: Blattella germanica 1-4 week old adult males, from LC50
Experimental: (§1) The insecticidal activities of the compounds of the Examples has been shown by the following tests in four species of insects, namely Aedes aegypti, Musca domestica, Blattella germanica, and Tribolium castaneum.
A 2 μl drop of a solution of the test compound in AR acetone was applied between the rear coxae of 1-4 week old adult males. Knockdown was recorded after 24 hours. Solutions of different concentration were tested from which the concentration of solution which gives 50% kill (LC50) was determined.
(§2) The results are all expressed as activities relative to the activity of Resmathrin (assigned activity=100), determined by the methods described. [formula]

[2] = tested on: Tribolium castaneum; assay: Topical activity against Tribolium castaneum (knockdown after 48 hours, LD50, relative to Resmethrin); type: in vivo; settings: Tribolium castaneum adults, from LD50
Experimental: as §1
A 1 μl drop of a solution of test compound in AR acetone was applied topically to adult insects. Knockdown was recorded after 48 hours. Solutions of different concentrations were tested from which the concentration of solution which gives 50% knockdown (LD50) was determined.
as §2

[3] = tested on: Musca domestica; assay: Topical activity against Musca domestica, compound alone (24 hours, LC50, relative to Resmethrin); type: in vivo; settings: Musca domestica 3-day old adult females, without synergist, from LC50
Experimental: as §1
(§3) (i) A 1 μl drop of a solution of test compound in AR acetone (high purity acetone) was applied to the dorsal thorax of 3-day old adult females. Knockdown was recorded after 24 hours. Solutions of different concentration were tested from which the concentration of solution and therefore the amount of compound which gives 50% kill (LC50) was determined.
as §2

[4] = tested on: Aedes aegypti; assay: Larvicidal activity against Aedes aegypti (kill after 24 hours, LC50, relative to Resmethrin); type: in vivo; settings: Aedes aegypti 3 day old larvae, from LC50
Experimental: as §1
A 0.2 cm^3 sample of a solution of test compound in AR acetone was applied to water (200 cm^3) containing 20 (3 day old) larvae. Kill was recorded after 24 hours. Solutions of different concentration were tested from which the concentration of solution which gives 50% kill (LC50) was determined.
as §2

[5] = tested on: Megoura vicae; assay: Knockdown of Megoura vicae (dip test); type: in vivo; settings: Megoura vicae adults, knockdown after 24 hours
From the text: (§4) The activities of some of the compounds of the Examples has been shown in the following tests in three species of phytophagous arthropods, namely Megoura vicae, Plutella xylostella, Tetranychus cinnabarinus.
(§5) Aqueous suspensions of test compound were made by adding a solution of test compound in AR acetone to a solution of TWEEN 80 (200 p.p.m.) in water.
Adult insects were dipped individually for 4 seconds in the aqueous suspension of test compound and then placed on a filter paper in a Petri dish (9.0 cm diameter) with a p.t.f.e. rim. A 5.0 cm long piece of broad bean stem was added and the lid was put on. Knockdown was recorded after 24 hours.

[6] = tested on: Tetranychus cinnabarinus; assay: Activity against Tetranychus cinnabarinus (dwarf French bean leaf dip test); type: in vivo; settings: foliar, Tetranychus cinnabarinus adult mites, 48 hours, read-out: Tetranychus % KD at 500.0 ppm
From the text: as §4, §5
The two primary leaves of dwarf French beans were reduced to 2.5 cm squares, and they were infested with ca. 20 adult mites. The leaves were then dipped for 4 seconds in the aqueous suspension of the test compound and allowed to dry. Adult mortality was recorded after 48 hours.

[7] = tested on: Musca domestica; assay: Topical activity against Musca domestica with synergist piperonyl butoxide (24 hours, LC50, relative to Resmethrin); type: in vivo; settings: Musca domestica 3-day old adult females, with 0.5% w/v piperonyl butoxide, from LC50
Experimental: as §1, §3
(ii) Similar tests were carried out with the amendment that to each test solution, 0.5% w/v of commercial insecticide synergist, piperonyl butoxide, was added.
as §2

[8] = Photostability of a deposit exposed to a light source; type: physicochemical; settings: times greater than Resmethrin
From the text: Photostability is an important feature when the insecticide is applied to foliage. […] A deposit of selected Examples and Resmethrin was exposed to a light source and tested at increasing time intervals.

[9] = tested on: Plutella xylostella; assay: Knockdown of Plutella xylostella (cabbage leaf dip test); type: in vivo; settings: foliar, Plutella xylostella 3rd instar larvae, knockdown after 24 hours, read-out: Plutella % KD at 25.0 ppm
From the text: as §4, §5
A 9.0 cm square of cabbage leaf was dipped for 4 seconds in the aqueous suspension of the test compound, and allowed to dry. The leaf was placed on filter paper in a Petri dish (9.0 cm). Five 3rd instar larvae were placed on the leaf, and the dish was placed in a polythene bag containing a wet cotton-wool pad. Knockdown was recorded after 24 hours.

SMILES	Activity Relative to Resmethrin = 100, Blattella [1]	Activity Relative to Resmethrin = 100, Tribolium [2]	Activity Relative to Resmethrin = 100, Musca Alone [3]	Activity Relative to Resmethrin = 100, Aedes [4]	Megoura % KD at 1.0 ppm [5] [%]	mortality at 500 ppm [6] [%]	Activity Relative to Resmethrin = 100, Musca with Synergist [7]	photostability half-life relative to Resmethrin [8] [times]	mortality at 25 ppm [9] [%]
CC(C)C(C(=O)OC(C#N)c1cccc(Oc2ccccc2)c1)c1ccc(Cl)c2occc12 (stereo not drawn) [Example 12, α-Cyano-m-phenoxybenzyl 7-chloro-α-isopropylbenzofuran-4-acetate]	207	100	140	417	15	< 10	454		
CC(C)C(C(=O)OC(C#N)c1cccc(Oc2ccccc2)c1)c1ccc2cc(Br)oc2c1 (stereo not drawn) [Example 11, α-Cyano-m-phenoxybenzyl 2-bromo-α-isopropylbenzofuran-6-acetate]	207	88	68	160	35	< 20	417		
CC(C)C(C(=O)OC(C#N)c1cccc(Oc2ccccc2)c1)c1ccc2sccc2c1 (stereo not drawn) [Example 4, α-Cyano-m-phenoxybenzyl α-isopropylbenzo(b)thiophene-5-acetate]	62		16	105			400	21.5	
CC(C)C(C(=O)OC(C#N)c1cccc(Oc2ccccc2)c1)c1ccc(Cl)c2oc(Br)cc12 (stereo not drawn) [Example 13, α-Cyano-m-phenoxybenzyl 2-bromo-7-chloro-α-isopropylbenzofuran-4-acetate]	< 10	< 2	10	267	86.6	< 10	417		
CC(C)C(C(=O)OC(C#N)c1cccc(Oc2ccccc2)c1)c1ccc2occc2c1 (stereo not drawn) [Example 9, α-Cyano-m-phenoxybenzyl α-isopropylbenzofuran-5-acetate]	1378	389	186	174	93.75	81.7	333		90
Cc1oc2cc(C(C(=O)OC(C#N)c3cccc(Oc4ccccc4)c3)C(C)C)ccc2c1C (stereo not drawn) [Example 14, α-Cyano-m-phenoxybenzyl 2,3-dimethyl-α-isopropylbenzofuran-6-acetate]	62	< 17.5	12	200	93.3	46.7	179		
CC(C)C(C(=O)OC(C#N)c1cccc(Oc2ccccc2)c1)c1ccc2ccoc2c1 (stereo not drawn) [Example 2, α-Cyano-m-phenoxybenzyl α-isopropylbenzofuran-6-acetate]	459	583	123	286	97.5	83.7	606	17.5	97.5
CC(C)C(C(=O)OCc1cccc(Oc2ccccc2)c1)c1cccc2occc12 (stereo not drawn) [Example 5, m-Phenoxybenzyl α-isopropylbenzofuran-4-acetate]	20.7	50	9	211	32.5	33.2	27		57.5
CC(C)C(C(=O)OCc1cccc(Oc2ccccc2)c1)c1ccc2ccoc2c1 (stereo not drawn) [Example 1, m-Phenoxybenzyl α-isopropylbenzofuran-6-acetate]	197	102.9	88	182	63.7	65.5	87		97.5
Cc1oc2cc(C(C(=O)OCc3cccc(Oc4ccccc4)c3)C(C)C)ccc2c1C (stereo not drawn) [Example 15, m-Phenoxybenzyl 2,3-dimethyl-α-isopropylbenzofuran-6-acetate]	< 10	4.7	1	118	90	100	24		
CC(C)C(C(=O)OCc1cccc(Oc2ccccc2)c1)c1ccc2c(Cl)coc2c1 (stereo not drawn) [Example 6, m-Phenoxybenzyl 3-chloro-α-isopropylbenzofuran-6-acetate]		80.4	20	151			110		
CC(C)C(C(=O)OCc1cccc(Oc2ccccc2)c1)c1ccc2sccc2c1 (stereo not drawn) [Example 3, m-Phenoxybenzyl α-isopropylbenzo(b)thiophene-5-acetate]	62	29.2	17	6.5	61.25	76.7	100		47.5
CC(C)C(C(=O)OC(C#N)c1cccc(Oc2ccccc2)c1)c1cccc2occc12 (stereo not drawn) [Example 8, α-Cyano-m-phenoxybenzyl α-isopropylbenzofuran-4-acetate]	206	194	125	108	66.9	100	926		87.5
CC(C)C(C(=O)OC(C#N)c1cccc(Oc2ccccc2)c1)c1ccc2c(Cl)coc2c1 (stereo not drawn) [Example 7, α-Cyano-m-phenoxybenzyl 3-chloro-α-isopropylbenzofuran-6-acetate]	1240	411	133	250	98.3	88.8	6060		100
CC(C)C(C(=O)OC(C#N)c1cccc(Oc2ccccc2)c1)c1ccc2c(c1)CCO2 (stereo not drawn) [Example 10, α-Cyano-m-phenoxybenzyl 2,3-dihydro-α-isopropylbenzofuran-5-acetate]	207	159	18	286	0	< 20	575		
